Literature values, collected in patent publication US20230405095A1, “DOSING REGIMEN” (VIIV HEALTHCARE UK (NO. 7) LIMITED, priority 2022, published 2023).

Experiments:
[1] = after injection of hyaluronidase; cited from earlier work
[2] = in vivo, sc; cited from earlier work

Row | Molecule | time until permeability barrier is restored to pre-injection levels [1] [h] | subcutaneous doses shown to be well tolerated [2]
1 | hyaluronidase | 24 to 48 | –
2 | rHuPH20: soluble hyaluronidase composition produced upon expression in a mammalian cell of nucleic acid encoding residues 36-482 of SEQ ID NO:1 (protein, listed as Homo sapiens, precursor human PH20) LNFRAPPVIPNVPFLWAWNAPSEFCLGKFDEPLDMSLFSFIGSPRINATGQGVTIFYVDRLGYYPYIDSITGVTVNGGIPQKISLQDHLDKAKKDITFYMPVDNLGMAVIDWEEWRPTWARNWKPKDVYKNRSIELVQQQNVQLSLTEATEKAKQEFEKAGKDFLVETIKLGKLLRPNHLWGYYLFPDCYNHHYKKPGYNGSCFNVEIKRNDDLSWLWNESTALYPSIYLNTQQSPVAATLYVRNRVREAIRVSKIPDAKSPLPVFAYTRIVFTDQVLKFLSQDELVYTFGETVALGASGIVIWGTLSIMRSMKSCLLLDNYMETILNPYIINVTLAAKMCSQVLCQEQGVCIRKNWNSSDYLHLNPDNFAIQLEKGGKFTVRGKPTLEDLEQFSEKFYCSCYSTLSCKEKADVKDTDAVDVCIADGVCIDAFLKPPMETEEPQIFY | – | up to 96,000 U
